Data published in ChEMBL document CHEMBL1144635, “Lead optimization of methionine aminopeptidase-2 (MetAP2) inhibitors containing sulfonamides of 5,6-disubstituted anthranilic acids” (Bioorg Med Chem Lett, 2007).

What was measured:
[1] = Volume of distribution in mouse at 10 mg/kg, iv; type: ADME, organism-based; set-up: dose 10 mg/kg, route intravenous; settings: in vivo, read-out: Vdss
[2] = Half life in mouse at 10 mg/kg, iv; type: ADME, organism-based; set-up: dose 10 mg/kg, route intravenous; settings: in vivo
[3] = Oral bioavailability in mouse at 30 mg/kg, po; type: ADME, organism-based; settings: in vivo
HT-1080 [4] = assay: Antiproliferative activity against HT1080 cells in presence of 40 mg/ml HSA; settings: Homo sapiens
HT-1080 [5] = assay: Antiproliferative activity against HT1080 cells; settings: Homo sapiens
[6] = Cmax in mouse at 30 mg/kg, po; type: ADME, organism-based; set-up: dose 30 mg/kg, route oral; settings: in vivo
[7] = Clearance in mouse at 10 mg/kg, iv; type: ADME, organism-based; set-up: dose 10 mg/kg, route intravenous; settings: in vivo

SMILES	Vd [1]	half-life [2]	bioavailability [3]	EC50 (HT-1080 [4])	EC50 (HT-1080 [5])	Cmax [6]	clearance [7]
CCc1ccc(NS(=O)(=O)c2ccc(F)cc2)c(C(=O)O)c1OCCN	1.1 L/kg	18 min	38%	–	–	2400 nM	50 mL/min/kg
COc1c(-c2ccoc2)ccc(NS(=O)(=O)c2ccc(F)cc2)c1C(=O)O	–	–	–	–	3800 nM	–	–
CCc1ccc(NS(=O)(=O)c2ccc(F)cc2)c(C(=O)O)c1OC	–	–	–	–	1400 nM	–	–
CCCc1ccccc1S(=O)(=O)Nc1ccc(CC)c(OCCN)c1C(=O)O	–	–	–	–	83000 nM	–	–
CCc1ccc(NS(=O)(=O)c2ccc(F)cc2)c(C(=O)O)c1C	–	–	–	–	4900 nM	–	–
CCc1ccc(NS(=O)(=O)c2ccc(F)cc2CCCN(CC)CC)c(C(=O)O)c1OCCN	–	–	–	–	30000 nM	–	–
COc1c(-c2ccoc2)ccc(NS(=O)(=O)c2ccc(F)cc2Br)c1C(=O)O	–	–	–	–	11000 nM	–	–
CCc1ccc(NS(=O)(=O)c2ccccn2)c(C(=O)O)c1C	5.5 L/kg	144 min	86%	–	12000 nM	34000 nM	26.7 mL/min/kg

The remaining compounds from weak to strong by EC50 (HT-1080 [5]), led by results:

Vd [1]	half-life [2]	bioavailability [3]	EC50 (HT-1080 [4])	EC50 (HT-1080 [5])	Cmax [6]	clearance [7]	SMILES
2 L/kg	18 min	13%	1900 nM	480 nM	900 nM	83.3 mL/min/kg	CCc1ccc(NS(=O)(=O)c2ccccc2NCCC2CCCN2C)c(C(=O)O)c1OC (centres undefined)
–	–	–	1200 nM	370 nM	–	–	CCc1ccc(NS(=O)(=O)c2ccccc2NCCCN2CCCCC2C)c(C(=O)O)c1OC (centres undefined)
–	–	–	2900 nM	320 nM	–	–	COc1c(-c2ccoc2)ccc(NS(=O)(=O)c2ccc(F)cc2NCCCN(C)C)c1C(=O)O
0.8 L/kg	18 min	31%	370 nM	250 nM	5900 nM	35 mL/min/kg	CCc1ccc(NS(=O)(=O)c2ccccc2NCCCCN(C)C)c(C(=O)O)c1OC
13.8 L/kg	12 min	16%	150 nM	70 nM	100 nM	675 mL/min/kg	CCc1ccc(NS(=O)(=O)c2ccc(F)cc2/C=C\CN(CC)CC)c(C(=O)O)c1OC
–	–	–	200 nM	60 nM	–	–	CCN(CC)C/C=C\c1cc(F)ccc1S(=O)(=O)Nc1ccc(-c2ccoc2)c(OC)c1C(=O)O
